Values of other authors in US20080161587A1, “Crystallization method for purification of calcipotriene” (Teva Pharmaceuticals USA, Inc., priority 2002, published 2008).

solubility in highly apolar solvents (highly a polar solvents (e.g. hydrocarbons)): essentially insoluble
solubility in alcoholic solvents (methanol, ethanol, and isopropanol (IPA)): highly soluble
SMILES: C=C1/C(=C\C=C2/CCC[C@]3(C)[C@@H]([C@H](C)/C=C/[C@@H](O)C4CC4)CC[C@@H]23)C[C@@H](O)C[C@@H]1O [calcipotriene, (5Z, 7E, 22E, 24S)-24-cyclopropyl-9,10-secochola-5,7,10(19), 22-tetraene-1α, 3β, 24-triol]
solubility of calcipotriene in methyl formate (solvent methyl formate): about 1 g calcipotriene/150 mL of methyl formate
